Test results: PubChem BioAssay AID1919005 (Molecular Pharmacology Branch, DTP, NCI, 2023)
pIC50: −log10 of the molar value. Several values for one entry are separate records, joined by “and”; a condition that tells them apart may be missing. Equal values may be shown once.

Test system: 855422-203-R-J1-PDC complex spheroid growth
Test: Anticancer human tumor 855422-203-R-J1-PDC patient-derived bladder carcinoma cell line growth inhibition [AhR]
Details: for viability, T/C: stronger effect = lower value
Text: Multicellular complex tumor spheroid response to aryl hydrocarbon receptor antagonists in combination with a variety of drugs and investigational agents in selected tumor cell lines
The current study was undertaken to assess response to aryl hydrocarbon receptor antagonists in combination with standard-of-care drugs and investigational agents in solid tumor complex spheroid models. Complex spheroids include a stromal component modeled by human endothelial cells (HUVEC) and fibroblasts modeled by human mesenchymal stem cells (MSCs). The concentration ranges selected for each drug and investigational agent were based upon clinically achievable concentrations if the clinical Cmax of the agent was known.
Compounds. The drugs and investigational agents: BAY 2416964 (NSC825713), GNF351 (NSC835774), CH-223191 (NSC835775), CPI-455 (NSC825282), aza-TdCyd (NSC777586), decitabine (NSC127716), belinostat (NSC758774), entinostat (NSC756642), pevonedistat (NSC761192), tazemetostat (NSC777109), talazoparib (NSC765396), olaparib (NSC753686), selinexor (NSC780203), nedisertib (M3814, NSC802822), bortezomib (NSC756655), venetoclax (NSC766270), doxorubicin (NSC123127), elimusertib (BAY189344, NSC800525), ceralasertib (AZD6738, NSC777638), TAK-243 (NSC785004), alisertib (NSC759677), etoposide (NSC141540), topotecan (NSC609699), eribulin (NSC707389), gemcitabine (NSC613327), carboplatin (NSC241240), cisplatin (NSC119875), and SN-38 (NSC673596) were obtained from the National Cancer Institute (NCI) Developmental Therapeutics Program Chemical Repository (32). The FDA-approved anticancer drug set is available from the Developmental Therapeutics Program at https://dtp.cancer.gov/organization/dscb/obtaining/available plates.htm. […] The stock solutions were prepared in dimethyl sulfoxide (DMSO, Sigma-Aldrich, St. Louis, MO, cat. D2650), except for the platinum compounds which were prepared in saline (Quality Biological, Gaithersburg, MD, cat. 114-055-101), at 800-fold the tested concentration and stored at -70 degrees C prior to their use. All drugs and investigational agents were tested over a range starting from a high concentration at or near the clinical Cmax and decreasing in half-log increments. If the clinical Cmax for an agent had not been determined, the highest concentration tested was 10 microM (Table 1).
Cell Culture. All cells were maintained in an incubator at 37 degrees C and 5% CO2 with 95% humidity. The PDC lines were cultured according to standard operating procedures established by the NCI PDMR (https://pdmr.cancer.gov). Briefly, all PDCs were thawed and cultured in Matrigel-coated flasks prepared with a working solution of 1X Ham's F-12 nutrient mix, without supplementation (Invitrogen, Waltham, MA, cat. 11765054), 100 U/mL penicillin-streptomycin (Invitrogen, cat. 15140122), and 2.5% Matrigel (Corning Inc., Corning, NY, cat. 354248) for the first three passages. All PDCs were cultured in complete DMEM/F-12 media containing advanced DMEM/F-12 (Invitrogen, cat. 12634028), 4.9% defined fetal bovine serum, heat inactivated (HyClone Laboratories Inc., Logan, UT, cat. SH30070.03HI), 389 ng/mL hydrocortisone (Sigma-Aldrich, cat. H4001), 9.7 ng/mL human EGF recombinant protein (Invitrogen, cat. PHG0313), 23.4 microg/mL adenine (Sigma-Aldrich, cat. A2786), 97.3 U/mL penicillin-streptomycin (Invitrogen, cat. 15140122), 1.9 mM L-glutamine (Invitrogen, cat. 25030081), and 9.7 microM Y-27632 dihydrochloride (Tocris Bioscience, Bristol, United Kingdom, cat. 1254). The PDCs were cultured in complete DMEM/F12 media without 10 microM Y-27632 dihydrochloride for at least two passages prior to the screen. The established cell lines NCI-H1341 and […] were cultured in DMEM/F-12, HEPES (Invitrogen, cat. 11330032), 5% defined fetal bovine serum (HyClone Laboratories Inc., cat. SH30070.03), ITS premix universal culture supplement [insulin (5 microg/mL), transferrin (5 microg/mL), and selenious acid (5 ng/mL)] […]
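Note: spheroids exposed to agents for seven days before readout.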
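Throughout, for viability, T/C: percent of DMSO vehicle control luminescence viability.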

**Q.** With `Cn1ncnc1C1c2n[nH]c(=O)c3cc(F)cc(c23)NC1c1ccc(F)cc1` (configuration not stated) as the compound, how does the viability, T/C (compound 0.000316 µM) read?
**A.** 98.3% and 105% and 99%

**Q.** And the viability, T/C (compound 0.001 µM)?
**A.** 92.9% and 104% and 110%

**Q.** What about the viability, T/C (compound 0.00316 µM) of the same compound?
**A.** 86.6% and 106% and 105%

**Q.** And the viability, T/C (compound 0.01 µM)?
**A.** 104% and 98.8% and 103%

**Q.** And the viability, T/C (compound 0.0316 µM)?
**A.** 99.4% and 102% and 95.6%

**Q.** What about the viability, T/C (compound 0.1 µM) of the same compound?
**A.** 82.4% and 101% and 98.5%

**Q.** What about the pIC50 (curve of compound) of the same compound?
**A.** < 7.00

**Q.** `CC1COCCN1c1cc(C2(S(C)(=N)=O)CC2)nc(-c2ccnc3[nH]ccc23)n1` (configuration not stated) + CC(CO)NC(=O)c1cc(-c2ccc(Cl)cc2)nn(-c2cnn(C)c2)c1=O was tested. Which pIC50 (curve of first compound, second compound 0.1 µM) did it give?
**A.** < 5.00

**Q.** And the pIC50 (curve of first compound, second compound 0.316 µM)?
**A.** < 5.00

**Q.** What about the pIC50 (curve of first compound, second compound 1 µM) of the same compound?
**A.** < 5.00

**Q.** And the pIC50 (curve of first compound, second compound 3.16 µM)?
**A.** < 5.00

**Q.** What about the pIC50 (curve of first compound, second compound 10 µM) of the same compound?
**A.** < 5.00

**Q.** And the viability, T/C (second compound 0.1 µM, first compound 0.0316 µM)?
**A.** 90.6%

**Q.** What about the viability, T/C (second compound 0.1 µM, first compound 0.1 µM) of the same compound?
**A.** 88.8%

**Q.** And the viability, T/C (second compound 0.1 µM, first compound 0.316 µM)?
**A.** 92.3%

**Q.** And the viability, T/C (second compound 0.1 µM, first compound 1 µM)?
**A.** 92.9%

**Q.** And the viability, T/C (second compound 0.1 µM, first compound 3.16 µM)?
**A.** 134%

**Q.** And the viability, T/C (second compound 0.1 µM, first compound 10 µM)?
**A.** 68.3%

**Q.** And the viability, T/C (second compound 0.316 µM, first compound 0.0316 µM)?
**A.** 92.2%

**Q.** And the viability, T/C (second compound 0.316 µM, first compound 0.1 µM)?
**A.** 88.2%

**Q.** And the viability, T/C (second compound 0.316 µM, first compound 0.316 µM)?
**A.** 95.2%

**Q.** And the viability, T/C (second compound 0.316 µM, first compound 1 µM)?
**A.** 112%

**Q.** What about the viability, T/C (second compound 0.316 µM, first compound 3.16 µM) of the same compound?
**A.** 136%

**Q.** And the viability, T/C (second compound 0.316 µM, first compound 10 µM)?
**A.** 75.4%

**Q.** And the viability, T/C (second compound 1 µM, first compound 0.0316 µM)?
**A.** 108%

**Q.** And the viability, T/C (second compound 1 µM, first compound 0.1 µM)?
**A.** 100%

**Q.** What about the viability, T/C (second compound 1 µM, first compound 0.316 µM) of the same compound?
**A.** 108%

**Q.** What about the viability, T/C (second compound 1 µM, first compound 1 µM) of the same compound?
**A.** 111%

**Q.** And the viability, T/C (second compound 1 µM, first compound 3.16 µM)?
**A.** 123%

**Q.** What about the viability, T/C (second compound 1 µM, first compound 10 µM) of the same compound?
**A.** 60.8%

**Q.** What about the viability, T/C (second compound 3.16 µM, first compound 0.0316 µM) of the same compound?
**A.** 93.9%

**Q.** And the viability, T/C (second compound 3.16 µM, first compound 0.1 µM)?
**A.** 98.7%

**Q.** And the viability, T/C (second compound 3.16 µM, first compound 0.316 µM)?
**A.** 107%

**Q.** What about the viability, T/C (second compound 3.16 µM, first compound 1 µM) of the same compound?
**A.** 110%

**Q.** What about the viability, T/C (second compound 3.16 µM, first compound 3.16 µM) of the same compound?
**A.** 123%

**Q.** What about the viability, T/C (second compound 3.16 µM, first compound 10 µM) of the same compound?
**A.** 58.9%

**Q.** What about the viability, T/C (second compound 10 µM, first compound 0.0316 µM) of the same compound?
**A.** 98.6%

**Q.** What about the viability, T/C (second compound 10 µM, first compound 0.1 µM) of the same compound?
**A.** 94.9%

**Q.** What about the viability, T/C (second compound 10 µM, first compound 0.316 µM) of the same compound?
**A.** 81%

**Q.** What about the viability, T/C (second compound 10 µM, first compound 1 µM) of the same compound?
**A.** 95.9%

**Q.** And the viability, T/C (second compound 10 µM, first compound 3.16 µM)?
**A.** 104%

**Q.** And the viability, T/C (second compound 10 µM, first compound 10 µM)?
**A.** 75.2%
